Tests used:
Cholinesterase = Cholinesterase (Homo sapiens, UniProt P06276)
Description: Concentration required to inhibit 50% of Butyrylcholinesterase obtained from human serum was determined in vitro

Acetylcholinesterase = Acetylcholinesterase (Homo sapiens, UniProt P22303)
Acetylcholinesterase, sequence (P22303 whole entry): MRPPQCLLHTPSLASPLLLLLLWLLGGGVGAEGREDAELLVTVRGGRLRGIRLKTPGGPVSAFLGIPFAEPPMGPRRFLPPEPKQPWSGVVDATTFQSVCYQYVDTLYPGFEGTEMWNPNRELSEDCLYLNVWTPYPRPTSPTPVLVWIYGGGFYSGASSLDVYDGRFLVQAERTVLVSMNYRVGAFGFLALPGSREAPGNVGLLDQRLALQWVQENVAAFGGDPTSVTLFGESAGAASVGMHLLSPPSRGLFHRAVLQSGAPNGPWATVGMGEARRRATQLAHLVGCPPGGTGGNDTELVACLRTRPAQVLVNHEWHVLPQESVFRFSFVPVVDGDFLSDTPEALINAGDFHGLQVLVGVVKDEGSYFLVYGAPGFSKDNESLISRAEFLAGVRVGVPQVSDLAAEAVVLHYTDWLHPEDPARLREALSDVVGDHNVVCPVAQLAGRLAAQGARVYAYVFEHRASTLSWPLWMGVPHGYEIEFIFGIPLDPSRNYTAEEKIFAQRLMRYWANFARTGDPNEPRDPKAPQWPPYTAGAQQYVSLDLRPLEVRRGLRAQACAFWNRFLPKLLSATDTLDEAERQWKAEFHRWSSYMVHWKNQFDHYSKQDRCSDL
Description: Concentration required to inhibit 50% of Acetylcholinesterase obtained from human erythrocytes was determined in vitro

Cholinesterase, sequence (P06276 whole entry): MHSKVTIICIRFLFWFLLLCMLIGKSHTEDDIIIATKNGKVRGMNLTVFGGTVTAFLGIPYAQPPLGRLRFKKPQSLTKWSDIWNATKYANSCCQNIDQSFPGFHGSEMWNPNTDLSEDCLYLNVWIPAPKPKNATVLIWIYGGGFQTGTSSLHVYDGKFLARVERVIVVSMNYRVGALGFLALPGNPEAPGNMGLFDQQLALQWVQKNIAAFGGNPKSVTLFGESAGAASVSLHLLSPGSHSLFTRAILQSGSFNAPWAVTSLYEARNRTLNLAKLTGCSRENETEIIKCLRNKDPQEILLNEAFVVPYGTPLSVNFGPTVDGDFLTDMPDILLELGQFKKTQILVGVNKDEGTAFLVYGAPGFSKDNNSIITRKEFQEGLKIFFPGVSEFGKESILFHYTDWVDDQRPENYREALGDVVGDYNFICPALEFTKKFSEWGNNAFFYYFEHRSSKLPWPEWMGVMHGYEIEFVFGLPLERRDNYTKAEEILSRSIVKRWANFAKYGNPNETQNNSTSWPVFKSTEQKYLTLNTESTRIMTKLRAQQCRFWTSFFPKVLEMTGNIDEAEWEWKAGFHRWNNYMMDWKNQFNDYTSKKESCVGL

| SMILES | IC50 (Cholinesterase) [µM] | IC50 (Acetylcholinesterase) [µM] |
| --- | --- | --- |
| O=C(CCC1CCN(Cc2ccccc2)CC1)c1ccc2[nH]c(-c3ccccc3)nc2c1 | 0.89 | 0.033 |
| CCn1c(C)nc2cc(C(=O)CCC3CCN(Cc4ccccc4)CC3)ccc21 | 4.2 | 0.0043 |
| O=C(CCC1CCN(Cc2ccccc2)CC1)c1ccccc1 | 4.3 |  |
| Cc1nc2cc(C(=O)CCC3CCN(Cc4ccccc4)CC3)ccc2[nH]1 | 6.2 | 0.012 |
| Cc1nc2ccc(C(=O)CCC3CCN(Cc4ccccc4)CC3)cc2s1 | 3.4 | 0.0068 |
| O=C(CCC1CCN(Cc2ccccc2)CC1)c1ccc2c(c1)OCCO2 | 4.8 | 0.03 |

— ChEMBL document CHEMBL1128725, “Design and synthesis of 1-heteroaryl-3-(1-benzyl-4-piperidinyl)propan-1-one derivatives as potent, selective acetylcholinesterase inhibitors” (J Med Chem, 1995)
